How the values were obtained:
Assay type in all cases: in vivo
[1] = tested on: Foxtail, Giant (giant foxtail, Setaria faberi); test: Test A postemergence, Foxtail, Giant; details: Postemergence, 0 to 100 scale (0 no effect, 100 complete control); for Plant response rating, Foxtail, Giant: 125 g ai/ha; for Foxtail, Giant plant response rating: 500 g ai/ha, visual injury vs untreated controls after approx. 10 days
How it was run: (§1)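 Preemergence: seeded pots of loam plus sand received a directed soil spray. Postemergence: seedlings at one to two leaves, 2 to 10 cm high, were oversprayed. Each compound was formulated in a non-phytotoxic solvent mix that included a surfactant.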

[2] = tested on: Ryegrass, Italian (Italian ryegrass, Lolium multiflorum); test: Test A postemergence, Ryegrass, Italian; details: Postemergence, 0 to 100 scale (0 no effect, 100 complete control); for Plant response rating, Ryegrass, Italian: 125 g ai/ha; for Ryegrass, Italian plant response rating: 500 g ai/ha, visual injury vs untreated controls after approx. 10 days
How it was run: as §1

[3] = tested on: Foxtail, Giant (giant foxtail, Setaria faberi); test: Test A preemergence, Foxtail, Giant; details: Preemergence; for Plant response rating, Foxtail, Giant: 0 to 100 scale (0 no effect, 100 complete control)
How it was run: as §1

[4] = tested on: pigweed (Amaranthus retroflexus); test: Test A preemergence, pigweed; details: for Plant response rating, Pigweed: 0 to 100 scale (0 no effect, 100 complete control)
How it was run: (§2)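 Postemergence ratings come from foliar sprays onto one- to two-leaf plants of 2 to 10 cm grown in loam/sand; preemergence ratings come from a directed spray onto the soil of newly seeded pots. Formulation was a surfactant-containing non-phytotoxic solvent blend.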

[5] = tested on: corn (Zea mays); test: Test A postemergence, corn; details: Postemergence, 0 to 100 scale (0 no effect, 100 complete control); for Plant response rating, Corn: 125 g ai/ha; for Corn plant response rating: 500 g ai/ha, visual injury vs untreated controls after approx. 10 days
How it was run: as §1

[6] = tested on: pigweed (Amaranthus retroflexus); test: Test A postemergence, pigweed; details: Postemergence, 0 to 100 scale (0 no effect, 100 complete control); for Plant response rating, Pigweed: 125 g ai/ha; for Pigweed plant response rating: 500 g ai/ha, visual injury vs untreated controls after approx. 10 days
How it was run: as §1

[7] = tested on: wheat (Triticum aestivum); test: Test A postemergence, wheat; details: Postemergence, 0 to 100 scale (0 no effect, 100 complete control); for Plant response rating, Wheat: 125 g ai/ha; for Wheat plant response rating: 500 g ai/ha, visual injury vs untreated controls after approx. 10 days
How it was run: as §2

[8] = tested on: Ryegrass, Italian (Italian ryegrass, Lolium multiflorum); test: Test A preemergence, Ryegrass, Italian; details: Preemergence; for Plant response rating, Ryegrass, Italian: 0 to 100 scale (0 no effect, 100 complete control)
How it was run: as §1

[9] = tested on: barnyardgrass (Echinochloa crus-galli); test: Test A preemergence, barnyardgrass; details: Preemergence; for Plant response rating, Barnyardgrass: 0 to 100 scale (0 no effect, 100 complete control)
How it was run: as §1

[10] = tested on: barnyardgrass (Echinochloa crus-galli); test: Test A postemergence, barnyardgrass; details: Postemergence, 0 to 100 scale (0 no effect, 100 complete control); for Plant response rating, Barnyardgrass: 125 g ai/ha; for Barnyardgrass plant response rating: 500 g ai/ha, visual injury vs untreated controls after approx. 10 days
How it was run: as §2

[11] = tested on: kochia (Bassia scoparia); test: Test A postemergence, kochia; details: Postemergence, 0 to 100 scale (0 no effect, 100 complete control); for Plant response rating, Kochia: 125 g ai/ha; for Kochia plant response rating: 500 g ai/ha, visual injury vs untreated controls after approx. 10 days
How it was run: as §1

[12] = tested on: galium (catchweed bedstraw, Galium aparine); test: Test A postemergence, galium; details: Postemergence, 0 to 100 scale (0 no effect, 100 complete control); for Plant response rating, Galium: 125 g ai/ha; for Galium plant response rating: 500 g ai/ha, visual injury vs untreated controls after approx. 10 days
How it was run: as §2

[13] = tested on: kochia (Bassia scoparia); test: Test A preemergence, kochia; details: Preemergence; for Plant response rating, Kochia: 0 to 100 scale (0 no effect, 100 complete control)
How it was run: as §1

[14] = tested on: blackgrass (Alopecurus myosuroides); test: Test A postemergence, blackgrass; details: Postemergence, 0 to 100 scale (0 no effect, 100 complete control); for Plant response rating, Blackgrass: 125 g ai/ha; for Blackgrass plant response rating: 500 g ai/ha, visual injury vs untreated controls after approx. 10 days
How it was run: as §1

[15] = tested on: ragweed (common ragweed, Ambrosia artemisiifolia); test: Test A preemergence, ragweed; details: Preemergence; for Plant response rating, Ragweed: 0 to 100 scale (0 no effect, 100 complete control)
How it was run: as §1

[16] = tested on: ragweed (common ragweed, Ambrosia artemisiifolia); test: Test A postemergence, ragweed; details: Postemergence, 0 to 100 scale (0 no effect, 100 complete control); for Plant response rating, Ragweed: 125 g ai/ha; for Ragweed plant response rating: 500 g ai/ha, visual injury vs untreated controls after approx. 10 days
How it was run: as §1

[17] = 125 g ai/ha, visual injury, approx. 10 days
[18] = 125 g ai/ha, visual injury on 0 to 100 scale (0 no effect, 100 complete control), approximately 10 days

| SMILES | Foxtail, Giant plant response rating [1] | Ryegrass, Italian plant response rating [2] | Plant response rating, Foxtail, Giant ([3]; 500 g ai/ha) | Plant response rating, Pigweed ([4]; 500 g ai/ha) | Corn plant response rating [5] | Pigweed plant response rating [6] | Wheat plant response rating [7] | Plant response rating, Ryegrass, Italian ([8]; 500 g ai/ha) | Plant response rating, Barnyardgrass ([9]; 500 g ai/ha) | Barnyardgrass plant response rating [10] | Kochia plant response rating [11] | Galium plant response rating [12] | Plant response rating, Kochia ([13]; 500 g ai/ha) | Blackgrass plant response rating [14] | Plant response rating, Ragweed ([15]; 500 g ai/ha) | Ragweed plant response rating [16] | also measured |
| --- | --- | --- | --- | --- | --- | --- | --- | --- | --- | --- | --- | --- | --- | --- | --- | --- | --- |
| Cc1cc(C)c(C(=O)N2CCC3(CCCC3)C2)cc1NS(=O)(=O)C(F)(F)F [Compound 225] | 0 | 40 | 100 | 100 | 0 | 30 | 0 | 100 | 90 | 10 | 10 | 80 | 40 | 20 | 90 | 40 | Plant response rating, Foxtail, Giant [1]: 0; Plant response rating, Ryegrass, Italian [2]: 60; Plant response rating, Foxtail, Giant [3, 17]: 90; Plant response rating, Pigweed [4, 17]: 70; Plant response rating, Corn [5]: 0; Plant response rating, Pigweed [6]: 90; Plant response rating, Wheat [7]: 0; Plant response rating, Ryegrass, Italian [8, 17]: 70; Plant response rating, Barnyardgrass [9, 17]: 70; Plant response rating, Barnyardgrass [10]: 0; Plant response rating, Kochia [11]: 0; Plant response rating, Galium [12]: 50; Plant response rating, Kochia [13, 17]: 0; Plant response rating, Blackgrass [14]: 0; Plant response rating, Ragweed [15, 17]: 30; Plant response rating, Ragweed [16]: 20 |
| CCn1nc(Cl)cc(-c2cc(N(S(C)(=O)=O)S(=O)(=O)C(F)(F)F)c(C)cc2C)c1=O [Compound 45] | 60 | 90 | 100 | 90 | 30 | 70 | 70 | 100 | 100 | 70 | 50 | 40 | 100 | 60 | 80 | 70 | Plant response rating, Foxtail, Giant ([1]; visual injury approx. 10 days): 0; Plant response rating, Ryegrass, Italian ([2]; visual injury approx. 10 days): 50; Foxtail, Giant plant response rating [3, 18]: 100; Pigweed plant response rating [4, 18]: 60; Plant response rating, Corn ([5]; visual injury approx. 10 days): 10; Plant response rating, Pigweed ([6]; visual injury approx. 10 days): 30; Plant response rating, Wheat ([7]; visual injury approx. 10 days): 40; Ryegrass, Italian plant response rating [8, 18]: 80; Barnyardgrass plant response rating [9, 18]: 90; Plant response rating, Barnyardgrass ([10]; visual injury approx. 10 days): 20; Plant response rating, Kochia ([11]; visual injury approx. 10 days): 10; Plant response rating, Galium ([12]; visual injury approx. 10 days): 10; Kochia plant response rating [13, 18]: 70; Plant response rating, Blackgrass ([14]; visual injury approx. 10 days): 0; Ragweed plant response rating [15, 18]: 60; Plant response rating, Ragweed ([16]; visual injury approx. 10 days): 20 |
